Values after ≈ are worked out from the molar mass of the structure shown. Read-outs that look alike come from different tables or passages of the source.
Legend:
[1] = test system: A. baumannii CQ4322; assay: Broth microdilution MIC/MBC, glycosides with or without polymyxins; assay type: cell-based, Acinetobacter baumannii; conditions: for MIC: Acinetobacter baumannii, CQ4322
[2] = test system: Bacillus anthracis (Sterne, ovine and pathogenic forms), Enterococcus faecalis and Bacillus cereus; conditions: Gram-positive bacteria; cited from earlier work
[3] = test system: HEK-293T cells; assay: Resazurin cell viability assay (cytotoxicity); assay type: cell-based, human; conditions: 72 h, read-out: IC50
In short: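 HEK-293T and Caco-2 cells (1.5 × 10^4/well, RPMI 1640 with 10% FBS) exposed 72 h at 37 °C to glycosides at final 100 to 10 µM, alone or with PMB or colistin at final 0.5, 0.25 or 0.125 µg/mL; max DMSO 0.33%. Resazurin added 4 h, read 570/600 nm; IC50 from dose-response fits, mean ± SD of three replicates.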

[4] = test system: K. pneumoniae CQ1947; assay: Broth microdilution MIC, glycosides with or without polymyxins; assay type: cell-based, Klebsiella pneumoniae; conditions: for MIC: Klebsiella pneumoniae, CQ1947
[5] = test system: P. aeruginosa CQ4924; assay: as above; assay type: cell-based, Pseudomonas aeruginosa; conditions: for MIC: Pseudomonas aeruginosa, CQ4924
[6] = test system: E. coli NCTC 13846; assay: Broth microdilution MIC/MBC, glycosides with or without polymyxins; assay type: cell-based, Escherichia coli; conditions: strain B
[7] = test system: K. pneumoniae CQ4921; assay: as above; assay type: cell-based, Klebsiella pneumoniae; conditions: for MIC: Klebsiella pneumoniae, CQ4921
[8] = alone, read-out: MICA (MIC of each compound individually)
[9] = combination with the lowest FICI
[10] = compound + colistin, lowest FICI

## CCCCCCCCCCCCO[C@H]1O[C@H](C)C[C@H](O)[C@H]1O [Compound 1, dodecyl 4,6-dideoxy-α/β-D-xylo-hexopyranoside]
[1]; agent alone, no adjuvant (polymyxin conc. 0), strain G, read-out: MIC
  MIC: > 100 µg/mL
[1]; [8]
  MIC: > 100 µg/mL
[1]; Cpd conc. 0.4 μg/mL, strain G
  MIC of colistin in combination with the compound: > 0.5 µg/mL
[1]; Cpd conc. 0.8 μg/mL, strain G
  MIC of colistin in combination with the compound: > 0.5 µg/mL
[1]; Cpd conc. 3.125 μg/mL, strain G
  MIC of colistin in combination with the compound: 0.25 µg/mL
[1]; Cpd conc. 6.25 μg/mL, strain G
  MIC of colistin in combination with the compound: 0.25 µg/mL
[1]; Cpd conc. 12.5 μg/mL, strain G
  MIC of colistin in combination with the compound: 0.25 µg/mL
[1]; Cpd conc. […], strain G
  MIC of colistin in combination with the compound: 0.5 µg/mL
[1]; PMB 0.25 μg/mL, strain G
  MIC of compound in combination with PMB: > 100 µg/mL
[1]; PMB 0.5 μg/mL, strain G
  MIC of compound in combination with PMB: 3.1 µg/mL
[1]; colistin 0.06 μg/mL, strain G
  MIC of compound in combination with colistin: > 100 µg/mL
[1]; colistin 0.125 μg/mL, strain G
  MIC of compound in combination with colistin: > 100 µg/mL
[1]; colistin 0.25 μg/mL, strain G
  MIC of compound in combination with colistin: 3.1 µg/mL
[1]; colistin 0.5 μg/mL, strain G
  MIC of compound in combination with colistin: 1.6 µg/mL
[1]; [9]
  MICA(A + B) (MIC of compound in combination with colistin): 3.125 µg/mL
  MICB(A + B) (MIC of colistin in combination with compound): 0.25 µg/mL
[1]; compound + colistin
  Interpretation (of FICI): Additive (from 0.5 to 1.0 were additive)
[1]; [10]
  FICI: 0.52
[2]
  MIC: 12.6 µM (≈ 3.99 µg/mL)
[3]; Homo sapiens, HEK-293T, Colistin 0.25 μg/mL
  IC50: 69.4 ± 2.58 µM
[3]; Homo sapiens, HEK-293T, Colistin 0.5 μg/mL
  IC50: 65.9 ± 3.75 µM
[3]; Homo sapiens, HEK-293T, No polymyxin
  IC50: 65.8 ± 1.28 µM
[3]; Homo sapiens, HEK-293T, PMB 0.125 μg/mL
  IC50: 64.6 ± 0.87 µM
[3]; Homo sapiens, HEK-293T, PMB 0.25 μg/mL
  IC50: 65.32 ± 0.4 µM
[3]; Homo sapiens, HEK-293T, PMB 0.5 μg/mL
  IC50: 67.7 ± 1.22 µM
[3]; Homo sapiens, HEK-293T, tested alone (no polymyxin adjuvant)
  IC50: 20.8 µg/mL
[3]; No polymyxin
  IC50: 65.8 µM
[4]; Cpd conc. 0.4 μg/mL, strain F
  MIC of colistin in combination with the compound: > 0.5 µg/mL
[4]; Cpd conc. 0.8 μg/mL, strain F
  MIC of colistin in combination with the compound: > 0.5 µg/mL
[4]; Cpd conc. 3.125 μg/mL, strain F
  MIC of colistin in combination with the compound: 0.5 µg/mL
[4]; Cpd conc. 6.25 μg/mL, strain F
  MIC of colistin in combination with the compound: 0.5 µg/mL
[4]; Cpd conc. 12.5 μg/mL, strain F
  MIC of colistin in combination with the compound: 0.5 µg/mL
[4]; Cpd conc. […], strain F
  MIC of colistin in combination with the compound: > 0.5 µg/mL
[4]; agent alone, no adjuvant (polymyxin conc. 0), strain F, read-out: MIC
  MIC: > 100 µg/mL
[4]; [8]
  MIC: > 100 µg/mL
[4]; PMB 0.25 μg/mL, strain F
  MIC of compound in combination with PMB: > 100 µg/mL
[4]; PMB 0.5 μg/mL, strain F
  MIC of compound in combination with PMB: 3.1 µg/mL
[4]; colistin 0.06 μg/mL, strain F
  MIC of compound in combination with colistin: > 100 µg/mL
[4]; colistin 0.125 μg/mL, strain F
  MIC of compound in combination with colistin: > 100 µg/mL
[4]; colistin 0.25 μg/mL, strain F
  MIC of compound in combination with colistin: > 100 µg/mL
[4]; colistin 0.5 μg/mL, strain F
  MIC of compound in combination with colistin: 3.1 µg/mL
[4]; [9]
  MICA(A + B) (MIC of compound in combination with colistin): 3.125 µg/mL
  MICB(A + B) (MIC of colistin in combination with compound): 0.5 µg/mL
[4]; compound + colistin
  Interpretation (of FICI): Indifferent (1.0 to 4.0 were indifferent)
[4]; [10]
  FICI: 1.016
[5]; Cpd conc. 0.4 μg/mL, strain H
  MIC of colistin in combination with the compound: > 0.5 µg/mL
[5]; Cpd conc. 0.8 μg/mL, strain H
  MIC of colistin in combination with the compound: > 0.5 µg/mL
[5]; Cpd conc. 3.125 μg/mL, strain H
  MIC of colistin in combination with the compound: > 0.5 µg/mL
[5]; Cpd conc. 6.25 μg/mL, strain H
  MIC of colistin in combination with the compound: > 0.5 µg/mL
[5]; Cpd conc. 12.5 μg/mL, strain H
  MIC of colistin in combination with the compound: > 0.5 µg/mL
[5]; Cpd conc. […], strain H
  MIC of colistin in combination with the compound: > 0.5 µg/mL
[5]; PMB 0.25 μg/mL, strain H
  MIC of compound in combination with PMB: > 100 µg/mL
[5]; PMB 0.5 μg/mL, strain H
  MIC of compound in combination with PMB: > 100 µg/mL
[5]; agent alone, no adjuvant (polymyxin conc. 0), strain H, read-out: MIC
  MIC: > 100 µg/mL
[5]; [8]
  MIC: > 100 µg/mL
[5]; colistin 0.06 μg/mL, strain H
  MIC of compound in combination with colistin: > 100 µg/mL
[5]; colistin 0.125 μg/mL, strain H
  MIC of compound in combination with colistin: > 100 µg/mL
[5]; colistin 0.25 μg/mL, strain H
  MIC of compound in combination with colistin: > 100 µg/mL
[6]; Cpd conc. 0.4 μg/mL
  MIC of colistin in combination with the compound: > 0.5 µg/mL
[6]; Cpd conc. 0.8 μg/mL
  MIC of colistin in combination with the compound: > 0.5 µg/mL
[6]; Cpd conc. 3.125 μg/mL
  MIC of colistin in combination with the compound: > 0.5 µg/mL
[6]; Cpd conc. 6.25 μg/mL
  MIC of colistin in combination with the compound: > 0.5 µg/mL
[6]; Cpd conc. 12.5 μg/mL
  MIC of colistin in combination with the compound: > 0.5 µg/mL
[6]; Cpd conc. […]
  MIC of colistin in combination with the compound: > 0.5 µg/mL
[6]; Escherichia coli, NCTC13846, agent alone, no adjuvant (polymyxin conc. 0), read-out: MIC
  MIC: > 100 µg/mL
[6]; PMB 0.25 μg/mL
  MIC of compound in combination with PMB: > 100 µg/mL
[6]; PMB 0.5 μg/mL
  MIC of compound in combination with PMB: > 100 µg/mL
[6]; colistin 0.06 μg/mL
  MIC of compound in combination with colistin: > 100 µg/mL
[6]; colistin 0.125 μg/mL
  MIC of compound in combination with colistin: > 100 µg/mL
[6]; colistin 0.25 μg/mL
  MIC of compound in combination with colistin: > 100 µg/mL
[6]; colistin 0.5 μg/mL
  MIC of compound in combination with colistin: > 100 µg/mL
[7]; Cpd conc. 0.4 μg/mL, strain C
  MIC of colistin in combination with the compound: > 0.5 µg/mL
[7]; Cpd conc. 0.8 μg/mL, strain C
  MIC of colistin in combination with the compound: > 0.5 µg/mL
[7]; Cpd conc. 3.125 μg/mL, strain C
  MIC of colistin in combination with the compound: 0.25 µg/mL
[7]; Cpd conc. 6.25 μg/mL, strain C
  MIC of colistin in combination with the compound: 0.25 µg/mL
[7]; Cpd conc. 12.5 μg/mL, strain C
  MIC of colistin in combination with the compound: 0.25 µg/mL
[7]; Cpd conc. […], strain C
  MIC of colistin in combination with the compound: 0.5 µg/mL
[7]; agent alone, no adjuvant (polymyxin conc. 0), strain C, read-out: MIC
  MIC: > 100 µg/mL
[7]; [8]
  MIC: > 100 µg/mL
[7]; PMB 0.25 μg/mL, strain C
  MIC of compound in combination with PMB: > 100 µg/mL
[7]; PMB 0.5 μg/mL, strain C
  MIC of compound in combination with PMB: 1.6 µg/mL
[7]; colistin 0.06 μg/mL, strain C
  MIC of compound in combination with colistin: > 100 µg/mL
[7]; colistin 0.125 μg/mL, strain C
  MIC of compound in combination with colistin: > 100 µg/mL
[7]; colistin 0.25 μg/mL, strain C
  MIC of compound in combination with colistin: 3.1 µg/mL
[7]; colistin 0.5 μg/mL, strain C
  MIC of compound in combination with colistin: 1.6 µg/mL
[7]; [9]
  MICA(A + B) (MIC of compound in combination with colistin): 3.125 µg/mL
  MICB(A + B) (MIC of colistin in combination with compound): 0.25 µg/mL
[7]; compound + colistin
  Interpretation (of FICI): Additive (from 0.5 to 1.0 were additive)
[7]; [10]
  FICI: 0.52
